Reference: patent publication US6734292B1, “Pseudoerythromycin derivatives” (The Kitasato Institute, priority 2002, dated 2004)
Where “and” joins values, the source holds several entries; their conditions need not be identical. Equal values may be shown once.

Columns and labels:
[1] = tested on: influenza virus-induced pneumonia; assay: suppressive effect against pneumonia caused by influenza viral infection (mice influenza pneumonia model); type: in vivo
Procedure: Next, the suppressive effect of the compound EM703 against pneumonia caused by influenza viral infection was examined.
Sample was dissolved in physiological saline containing 1% DMSO and amount corresponding to oral dosage of the small administration for long-term therapy was administered from day-1 to day-6 of the infection to mice influenza pneumonia model (0.3 mg and 0.03 mg/mice), once a day, intraperitoneally. Results were compared with control group which was given only solvent.
In this system, mice developed pneumonia and almost died about 20 days after infection. […] This indicates suppressive effect against pneumonia and result to cure pneumonia.

[2] = tested on: THP-1 cells; assay: enhancing effect for differentiation-induction from human monocyte to macrophage (THP-1/Mφ system, MTT readout); type: cell-based; details: in comparison with enhancing action for differentiation-induction of EM 100 μM
Procedure: In order to confirm enhancing effect for differentiation-induction of the compounds of the present invention, the enhancing effect for differentiation-induction from human monocyte to macrophage was assayed. Method is performed as follows. THP-1 cells were collected from cultured liquid by centrifugation, adjusted the concentration to 2×10^5 cells/ml using medium (RPMI 1640) and distributed into the 48-well plate at 500 μl/well. PMA solution 10 μl and sample solution 5 μl were added in each well, stirred with mild shaking and incubated at 37° C. for 72-96 hours under 5% CO2. Further MTT 0.5 mg/ml solution was added at 300 μl/well, and incubated at 37° C. for 3 hours under 5% CO2. Supernatant solution was suctioned using the injection tube, added DMSO 500 μl using automatic continuous injector to dissolve formazan completely and transferred each 100 μl to the 96-well plate. The optical absorption was measured using the plate-reader.

[3] = tested on: bleomycin-induced pulmonary fibrosis; assay: suppressive effect against bleomycin-induced pulmonary fibrosis (hydroxyproline levels in tissue); type: in vivo, mice; details: for Hydroxyproline levels in tissue, Assay result / Hydroxyproline levels in tissue, Weight conversion: day-28, individual mice
[4] = BLM + EM703 group: BLM 100 mg/kg tail vein day-0, EM703 50 mg/kg/day orally for 17 days
[5] = EM703 group (no BLM), 50 mg/kg/day orally, 50 mg/kg/day

## CC[C@H]1O[C@]2(O)O[C@H]([C@@H](C)C3O[C@@](C)(C[C@@H]3C)[C@H](O[C@@H]3OC(C)CC(NC)C3O)[C@@H](C)[C@H](O[C@H]3CC(C)(OC)[C@@H](O)C(C)O3)[C@H]2C)[C@]1(C)O (stereo partly drawn) [EM703, de(3′-N-methyl)-8,9-anhydro-pseudoerythromycin A 6,9-hemiketal]
[1]; EM703 0.3 mg/mice intraperitoneally once a day, day-1 to day-6 of infection, control mice almost died about 20 days after infection, FIG. 2
  survival of mice: 40%
[1]; administration of EM703 intraperitoneally, control showed significant decrease of body weight, FIG. 3
  body weight: increase body weight from day-10
[1]; mice influenza pneumonia model, 0.3 mg/mice
  suppressive effect against influenza virus-induced pneumonia: cured pneumonia
[2]; 0.3 μM
  activities in THP-1/Mφ system, Treated conc. 0.3 μM: + (enhanced 50-100%)
[2]; 1 μM
  activities in THP-1/Mφ system, Treated conc. 1 μM: + (enhanced 50-100%)
[2]; 3 μM
  activities in THP-1/Mφ system, Treated conc. 3 μM: + (enhanced 50-100%)
[2]; 10 μM
  activities in THP-1/Mφ system, Treated conc. 10 μM: + (enhanced 50-100%)
[3]; [4]
  Hydroxyproline levels in tissue, Assay result: 583 µmol/L and 495 µmol/L and 437 µmol/L and 314 µmol/L
  Hydroxyproline levels in tissue, Weight conversion: 5.2 µmol/g and 4.5 µmol/g and 4.4 µmol/g and 2.9 µmol/g
[3]; EM703 50 mg/kg/day orally, BLM 100 mg/kg
  Hydroxyproline level, an index for lung injury, BLM+EM703 group versus BLM administered group: reduced
[3]; [5]
  Hydroxyproline levels in tissue, Assay result: 552 µmol/L and 489 µmol/L and 591 µmol/L
  Hydroxyproline levels in tissue, Weight conversion: 5.0 µmol/g and 4.6 µmol/g and 5.4 µmol/g
